Measured values as given in article PMC6720605, “Bioactivity of Methoxylated and Methylated 1-Hydroxynaphthalene-2-Carboxanilides: Comparative Molecular Surface Analysis” (Molecules, 2019).
Values after ≈ are worked out from the molar mass of the structure shown. Read-outs that look alike come from different tables or passages of the source.

Experiments:
[1] = tested on: human monocytic leukaemia THP-1 cells; format: cell-based; conditions: 30 µM highest concentration
Method: Human monocytic leukaemia THP-1 cells were obtained from the European Collection of Cell Cultures (ECACC, Salisbury, UK; Methods of characterization: DNA Fingerprinting (Multilocus probes) and isoenzyme analysis). Cell toxicity was determined using a Cytotoxicity Detection Kit^PLUS Lactate dehydrogenase (LDH) assay kit (Roche Diagnostics, Mannheim, Germany) according to the manufacturer’s instructions, as described previously.

[2] = Lipophilicity determination by HPLC (capacity factor k / calculated log k); format: physicochemical; conditions: experimental lipophilicity
Method: The lipophilicity determination was performed as described by Kapustikova et al..

[3] = tested on: M. tuberculosis ATCC 25177/H37Ra; experiment: MTT assay, viability of M. tuberculosis; format: cell-based, Mycobacterium tuberculosis; conditions: at tested MIC concentration; 7 days
Method: Compounds were prepared as previously stated and diluted in MH or MB broth for S. aureus to achieve the desired final concentrations 0.5 and 1 µg/mL, respectively, for S. aureus ATCC 29213, and 2 and 8 µg/mL, respectively, for M. tuberculosis ATCC 25177/H37Ra. M. tuberculosis ATCC 25177/H37Ra was suspended in ODAC supplemented MB at 1.0 McFarland and then diluted 1:10, using MB as a diluent. The diluted mycobacteria (50 µL) were added to each well containing the compound to be tested. S. aureus bacterial suspension in sterile distilled water at 0.5 McFarland was diluted 1:3. Inocula were added to each well by multi-inoculator. Diluted mycobacteria in broth free from inhibiting compounds were used as the growth control. All compounds were prepared in duplicate. […] The plates were read at 570 nm. The absorbance readings from the cells grown in the presence of the tested compounds were compared with uninhibited cell growth to determine the relative percent inhibition. The percent inhibition was determined through the MTT assay. The percent viability is calculated through the comparison of a measured value and that of the uninhibited control: % viability = OD570E/OD570P × 100, where OD570E is the reading from the compound-exposed cells, while OD570P is the reading from the uninhibited cells (positive control). Cytotoxic potential is determined by a percent viability of <70% [37, 38, 39, 52].

[4] = tested on: methicillin-resistant S. aureus 63718; experiment: In vitro antibacterial evaluation (MIC), MRSA clinical isolate 63718; format: cell-based, Staphylococcus aureus; conditions: Staphylococcus aureus
Method: (§1) The synthesized compounds were evaluated for in vitro antibacterial activity against representatives of multidrug-resistant bacteria, clinical isolates of methicillin-resistant Staphylococcus aureus (MRSA) 63718, SA 630 and SA 3202 [16, 17] that were obtained from the National Institute of Public Health (Prague, Czech Republic). S. aureus ATCC 29213 was used as the reference and quality control strain. Ampicillin (Sigma, St. Louis, MO, USA) was used as the standard. The screening was performed as described previously.

[5] = tested on: methicillin-resistant S. aureus SA 630; experiment: In vitro antibacterial evaluation (MIC), MRSA clinical isolate SA 630; format: cell-based, Staphylococcus aureus; conditions: Staphylococcus aureus; clinical isolate MRSA SA 630; read-out: MIC MRSA SA 630
Method: as §1

[6] = tested on: methicillin-resistant S. aureus SA 3202; experiment: In vitro antibacterial evaluation (MIC), MRSA clinical isolate SA 3202; format: cell-based, Staphylococcus aureus; conditions: Staphylococcus aureus; clinical isolate MRSA SA 3202; read-out: MIC MRSA SA 3202
Method: as §1

[7] = tested on: Mycobacterium tuberculosis H37Ra ATCC 25177; experiment: In vitro antimycobacterial evaluation (MIC), M. tuberculosis; format: cell-based
Method: (§2) The evaluation of the in vitro antimycobacterial activity of the compounds was performed against Mycobacterium tuberculosis H37Ra ATCC 25177 and M. kansasii DSM 44162 by means of the methodology described recently [e.g., 1,3,4–6,15,43]. Isoniazid (Sigma) was used as the standard.

S. aureus ATCC 29213 = conditions: Staphylococcus aureus, 24 h
[8] = tested on: Staphylococcus aureus ATCC 29213; experiment: In vitro antistaphylococcal susceptibility testing (MIC), reference strain; format: cell-based
Method: as §1

[9] = tested on: photosynthetic electron transport (PET) in spinach (Spinacia oleracea L.) chloroplasts; experiment: Inhibition of photosynthetic electron transport (PET) in spinach chloroplasts; format: biochemical
Method: The PET-inhibiting investigation using chloroplasts from spinach (Spinacia oleracea L.) was performed as described previously.

M. kansasii DSM 44162 = experiment: In vitro antimycobacterial evaluation (MIC), M. kansasii; format: cell-based, Mycobacterium kansasii; conditions: M. kansasii DSM 44162, read-out: MIC MK
Method: as §2

[10] = clinical isolate MRSA 63718, read-out: MIC MRSA 63718
[11] = one value for the three clinical MRSA strains (63718, SA 630, SA 3202), read-out: MIC against the MRSA strains
[12] = Mycobacterium kansasii, DSM44162

| Structure (SMILES) | Tox LD50 [1] | log k [2] | viability of M. tuberculosis H37Ra (MTT) [3] | MIC [4, 10] | MIC [4, 11] | MIC [5] | MIC [6] | MIC [7] | viability of S. aureus ATCC 29213 (MTT) (S. aureus ATCC 29213) | MIC [8] | MIC ([8]; ATCC29213) | IC50 [9] | MIC (M. kansasii DSM 44162; [12]) | melting point | MIC (M. kansasii DSM 44162) |
| --- | --- | --- | --- | --- | --- | --- | --- | --- | --- | --- | --- | --- | --- | --- | --- |
| Cc1cc(C)cc(NC(=O)c2ccc3ccccc3c2O)c1 [Compound 13, N-(3,5-dimethylphenyl)-1-hydroxynaphthalene-2-carboxamide] | >30 µM | 1.0030 | 32% | 6.85 µM (≈ 2 µg/mL) | 6.85 µM (≈ 2 µg/mL) | 6.85 µM (≈ 2 µg/mL) | 6.85 µM (≈ 2 µg/mL) | 6.86 µM (≈ 2 µg/mL) | 19% | 3.43 µM (≈ 0.999 µg/mL) | 3.43 µM (≈ 0.999 µg/mL) | 8.19 µM | 27.4 µM (≈ 7.98 µg/mL) | – | – |
| COc1ccc(Br)cc1NC(=O)c1ccc2ccccc2c1O [Compound 20, N-(5-Bromo-2-methoxyphenyl)-1-hydroxynaphthalene-2-carboxamide] | – | 1.0432 | – | 687 µM (≈ 256 µg/mL) | – | 687 µM (≈ 256 µg/mL) | 687 µM (≈ 256 µg/mL) | 344 µM (≈ 128 µg/mL) | – | – | 687 µM (≈ 256 µg/mL) | 569 µM | 687 µM (≈ 256 µg/mL) | 157 to 159 °C | – |
| COc1cc(F)cc(NC(=O)c2ccc3ccccc3c2O)c1 [Compound 23, N-(3-Fluoro-5-methoxyphenyl)-1-hydroxynaphthalene-2-carboxamide] | >30 µM | 0.7629 | – | 3.21 µM (≈ 0.999 µg/mL) | 3.21 µM (≈ 0.999 µg/mL) | 3.21 µM (≈ 0.999 µg/mL) | 3.21 µM (≈ 0.999 µg/mL) | 25.6 µM (≈ 7.97 µg/mL) | 49% | 1.60 µM (≈ 0.498 µg/mL) | 1.6 µM (≈ 0.498 µg/mL) | 10.1 µM | 12 µM (≈ 3.74 µg/mL) | – | 12.0 µM (≈ 3.74 µg/mL) |
